For one series, the system named is autophagy. The following applies: low pH media, and bulky tumors in vivo; Pellegrini et al.; cited from earlier work.
A short description of series [1]: Cyclic voltammetry, anodic oxidation potentials. Format: physicochemical. Particulars: dichloromethane/0.05 M [NBu4][B(C6F5)4]. As to the method: Electrochemical studies were carried out. The electrolyte solution used for these studies, namely dichloromethane with 0.05 M [NBu4][B(C6F5)4] as the supporting electrolyte, is known to provide an optimum medium for the electrochemical oxidation of compounds containing the MnCp(CO)3 (Cp=η^5-C5H5) backbone (Laws et al., J. Am. Chem. Soc. 2008, 130, 9859). The potentials given here are referred to the ferrocene/ferrocenium reference couple. The experiments were carried out in a controlled atmosphere which minimizes exposure to oxygen and water. We refer to two types of standard electrochemical techniques that are commonly described in books on electrochemistry: cyclic voltammetry and bulk electrolysis (Bard, A. J.; Faulkner, L. R. Electrochemical Methods, John Wiley & Sons, New York, 2001, second edition) The former is useful for the analytical and gross mechanistic aspects of the electron-transfer properties of a compound, whereas the latter is most often employed for the electro-synthetic function of making isolable quantities of electrochemical oxidation or reduction products.
Anodic oxidation of the three compounds was investigated. […]
Table of potentials (vs ferrocene/ferrocenium (FcH)) measured by cyclic voltammetry for oxidation of compounds 3, 4, and 5 in dichloromethane/0.05 M [NBu4][B(C6F5)4]. […]

Series [2] has as its system panel of human cancer cell lines. Nature of the series: Cytotoxicity assay (MTS cell viability, 72 h). Format: cell-based. As for the experimental part: (§1) Materials and Methods. Cell lines and reagents. Human cancer cell lines ACHN (kidney adenocarcinoma), BxPC3 (pancreatic adenocarcinoma), DU145 (prostate carcinoma), HT29 (colorectal adenocarcinoma), Jurkat (T-cell lymphoma), LNCaP (androgen sensitive prostate adenocarcinoma), PC3 (androgen insensitive prostate adenocarcinoma), SB1A (melanoma), and T47D (breast infiltrating ductal carcinoma) were cultured RPMI 1640 (Mediatech, Inc., Manassas, Va.) supplemented with 10% fetal bovine serum, 1% penicillin/streptomycin/amphotericin B solution, 1 mM sodium pyruvate, 1% MEM non-essential amino acid solution, and 2 mM L-glutamine at 37° C. in a 5% CO2, humidified incubator. All supplements were purchased from HyClone™ (Logan, Utah). […] The resulting pH was measured to be 6.72±0.06 in the absence of cells. […]
(§2) Cytotoxicity assay. […] Viability was measured by the CellTiter 96 AQueous Non-Radioactive Cell Proliferation Assay (Promega, Madison, Wis.) according to manufacturer's instruction. Briefly, 20 μL of MTS/PMS reagent was added to each tissue culture well, and incubated at 37° C. for a minimum of 2 hours, or until the maximum absorbance at 490 nm on the plate (wells with highest cell numbers) reached a value greater than 0.6. Absorbance was measured on a Perkin-Elmer Victor X4 multi-label plate reader. […]

A further series relates to RWPE-1. Nature of the series: Cytotoxicity assay (MTS cell viability, 72 h) in normal prostate epithelial cells. Format: cell-based, human. Particulars: normal pH. As to the method: as §1, §2
A further series has as its system LC3-II. Nature of the series: Western blotting for LC3 isoforms in SB1A cells. In kind it is cell-based, human. Particulars: 24 h. As for the experimental part: (§3) FIG. 10. Evidence of lysosomal accumulation and cytotoxicity obtained through autophagy blockade by Cymanquine. A, SB1A cells were treated with various concentrations of Cymanquine or CQ for 24 h prior to western blotting for LC3 isoforms 1 and 2 (LC3-I and II—see text), respectively. […] B, SB1A cells stably expressing EGFP-LC3 were treated with indicated concentrations of CQ and Cymanquine for 4 h prior to fluorescence microscopy evaluation of EGFP-LC3 sub-cellular deposition. C-E, SB1A were treated with various concentrations of Cymanquine or CQ for 24 h prior to simultaneous staining with NBD-PZ and propidium iodide and analysis by flow cytometry. C, Live cells, sorted based on absence of propidium iodide staining (left panel, pentagonal gate) were analyzed for NBD-PZ staining, indicative of lysosomal content. B,C, The dose-response of Cymanquine and CQ on B, percentage of live cells (negative for propidium iodide staining), and C, NBD-PZ median fluorescence intensity of live cells. […]
(§4) Experiments aimed at elucidating the mechanism of action of Cymanquine were conducted. […] Preliminary quantitation of Cymanquine and CQ from isolated lysosomes of cells treated with equimolar quantities of either drug have been encouraging, showing a 60-fold higher accumulation of Cymanquine compared to CQ, as measured by HPLC-MS/MS.

Series [3] has as its system EGFP-LC3 fusion protein in SB1A cells. Nature of the series: Fluorescence microscopy of EGFP-LC3 sub-cellular distribution. In kind it is cell-based, human. Particulars: SB1A stably expressing EGFP-LC3, 4 h. As for the experimental part: as §3, §4
Another series relates to SB1A cells. Nature of the series: Flow cytometry with NBD-PZ and propidium iodide staining. In kind it is cell-based, human. Particulars: 24 h. As for the experimental part: FIG. 10. […] C, Live cells, sorted based on absence of propidium iodide staining (left panel, pentagonal gate) were analyzed for NBD-PZ staining, indicative of lysosomal content. […] Data in B,C presented as mean+/−SEM (n=3). *P<0.05, **P<0.001 by student's t-test.
Experiments aimed at elucidating the mechanism of action of Cymanquine were conducted. […] It is known that the blockade of autophagy results in the accumulation of neutralized lysosomes and of proteins normally cleared by autophagic flux.

Series [4] concerns isolated lysosomes of cells. Briefly: Quantitation of drug from isolated lysosomes by HPLC-MS/MS. Format: cell-based. The following applies: preliminary, cells treated with equimolar quantities of either drug. As for the experimental part:
Experiments aimed at elucidating the mechanism of action of Cymanquine were conducted. […] It is known that the blockade of autophagy results in the accumulation of neutralized lysosomes and of proteins normally cleared by autophagic flux. FIG. 10 presents data that support a mechanism of action for Cymanquine as a weak base lysosomotropic autophagy inhibitor. […] The lysosomotropic fluorophore, NBD-PZ, was employed in conjunction with propidium iodide (PI) to simultaneously measure lysosomal accumulation, neutralization, and cell viability by flow cytometry on CQ and Cym treated SB1A cells (FIG. 10C-E). […] Furthermore, at the highest concentration of Cymanquine tested, NBD-PZ staining is reduced, due to either lysosome loss, or neutralization, as emission of this fluorophore is highly dependent upon pH. Preliminary quantitation of Cymanquine and CQ from isolated lysosomes of cells treated with equimolar quantities of either drug have been encouraging, showing a 60-fold higher accumulation of Cymanquine compared to CQ, as measured by HPLC-MS/MS.

Entries after “also recorded” stand apart in the source; their conditions may differ.

Regarding `CCN(CC)CCCC(C)Nc1ccnc2cc(Cl)ccc12` (stereo not shown) [CQ, Chloroquine], the anti-autophagic efficacy entry with autophagy was “poor anti-autophagic efficacy”.
On to cymanquine [Compound 3], for which the “Ep(1)” value in series [1] (first oxidation, anodic peak potential, irreversible) was 0.82 V vs FcH. In addition, in series [1] (second oxidation, given as Ep (irreversible)), the “E1/2(2) or Ep(2)” value was found to be 1.25 V vs FcH. Moreover, the “cytotoxicity compared to CQ” value in series [2] (low-pH (PIPES-supplemented) media) is recorded as “more potent cytotoxicity than CQ”. The “cytotoxicity compared to CQ” value in series [2] (normal pH growth conditions, listed as CMQ) is “more potent cytotoxicity than CQ; also recorded: more potent single-agent cytotoxic properties than CQ”. The “relative sensitivity of RWPE-1 compared to transformed cell lines” value in the series with RWPE-1 is “most resistant”. For the same compound, the “cell death at the highest concentrations tested” value with LC3-II is “extensive cell death”. For the same compound, in the series on LC3-II (western blot), the “accumulation of autophagy marker LC3-II” value is reported as “dose-responsive accumulation”. The “subcellular distribution of EGFP-LC3” value in series [3] is “punctate EGFP-LC3 emission patterns”. For the same compound, the NBD-PZ staining entry in the series with SB1A cells (highest concentration tested) was “reduced”. For the same compound, in the series on SB1A cells (low micromolar exposures), the “cytotoxicity (percentage of live cells, propidium iodide)” value is “significant cytotoxicity” and the “lysosome content (NBD-PZ staining of live cells)” value is “marked accumulation of lysosomes”. Also, in series [4], the “accumulation in lysosomes compared to CQ” value stood at 60 fold.

Values taken from US10954260B2, “Cymanquine compounds and derivatives thereof and uses thereof” (UNIVERSITY OF VERMONT AND STATE AGRICULTURAL COLLEGE, priority 2015, dated 2021).
